# ChEMBL document CHEMBL5120864, “Targeting Enhancer of Zeste Homolog 2 for the Treatment of Hematological Malignancies and Solid Tumors: Candidate Structure-Activity Relationships Insights and Evolution Prospects” (J Med Chem, 2022)
# Key:
# [1] = molecular target: T1, Histone-lysine N-methyltransferase EZH2 (Homo sapiens, UniProt Q15910)
# SU-DHL-6 = experiment: cells; type: functional, cell-based; details: Homo sapiens
# Pfeiffer = experiment: cells; type: functional, cell-based; details: Homo sapiens
# HepG2 = experiment: cells; type: functional, cell-based; details: Homo sapiens, HepG2, 24 h
# MCF7 [2] = experiment: cells; type: functional, cell-based; details: Homo sapiens, MCF7, 24 h
# PC-3 = experiment: cells; type: functional, cell-based; details: Homo sapiens, PC-3, 24 h
# KARPAS-422 = experiment: cells; type: functional; details: Homo sapiens
# HeLa = experiment: cells; type: functional, cell-based; details: Homo sapiens
# [3] = molecular target: T1, Histone-lysine N-methyltransferase EZH2; remark: listed apart in the source
# [4] = molecular target: Histone-lysine N-methyltransferase EZH2 (Homo sapiens, UniProt Q15910, Y641F)
# Histone-lysine N-methyltransferase EZH2 (Homo sapiens, UniProt Q15910, Y641F), sequence (Q15910 whole entry Y641F): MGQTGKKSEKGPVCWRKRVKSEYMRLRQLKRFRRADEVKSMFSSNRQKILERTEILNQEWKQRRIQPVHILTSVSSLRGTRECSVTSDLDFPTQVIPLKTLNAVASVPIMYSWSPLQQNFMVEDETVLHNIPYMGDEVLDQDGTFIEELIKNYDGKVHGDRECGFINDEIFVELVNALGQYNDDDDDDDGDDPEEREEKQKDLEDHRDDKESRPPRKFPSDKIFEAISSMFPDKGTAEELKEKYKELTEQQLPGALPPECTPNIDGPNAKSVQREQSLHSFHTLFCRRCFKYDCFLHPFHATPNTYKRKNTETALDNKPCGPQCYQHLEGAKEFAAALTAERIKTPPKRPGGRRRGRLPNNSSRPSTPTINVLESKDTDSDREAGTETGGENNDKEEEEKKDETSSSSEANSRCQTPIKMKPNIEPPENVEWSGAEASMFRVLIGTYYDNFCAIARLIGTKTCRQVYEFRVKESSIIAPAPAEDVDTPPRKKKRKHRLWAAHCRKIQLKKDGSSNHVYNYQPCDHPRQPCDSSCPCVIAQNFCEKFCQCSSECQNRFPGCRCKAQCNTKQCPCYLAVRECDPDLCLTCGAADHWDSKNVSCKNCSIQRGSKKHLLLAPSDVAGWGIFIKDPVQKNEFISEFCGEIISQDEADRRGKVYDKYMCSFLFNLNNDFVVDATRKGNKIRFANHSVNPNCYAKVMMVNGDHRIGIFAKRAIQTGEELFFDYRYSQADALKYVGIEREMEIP
# [5] = molecular target: Histone-lysine N-methyltransferase EZH2 (Homo sapiens, UniProt Q15910, Y641N)
# Histone-lysine N-methyltransferase EZH2 (Homo sapiens, UniProt Q15910, Y641N), sequence (Q15910 whole entry Y641N): as the sequence (Q15910 whole entry Y641F) above, with F641N counted along it
# [6] = molecular target: T1, Histone-lysine N-methyltransferase EZH2; remark: listed apart in the source
# cells = details: Homo sapiens, MDA-MB-23
# MDA-MB-468 = experiment: cells; details: Homo sapiens
# MCF7 [7] = experiment: cells; details: Homo sapiens
# T1 sequence (Q15910 whole entry): as the sequence (Q15910 whole entry Y641F) above, with F641Y counted along it
smiles,measurement,setting,value
[2H]C([2H])([2H])Sc1cc(C)[nH]c(=O)c1CNC(=O)c1c(C)n([C@H](C)C2CCC(OC)CC2)c2ccc(-c3cnn(C)c3)cc12 (stereo not given in full),IC50,[1],0.4 nM
same,IC50,SU-DHL-6,71.1 nM
CCN(c1cc(-c2ccc(CN3CCOCC3)cc2)cc(C(=O)NCc2c3c(c(C)[nH]c2=O)CCCCC3)c1C)C1CCOCC1,IC50,Pfeiffer,27000 nM
same,IC50,SU-DHL-6,> 30000 nM
O=C1CCSC(c2ccc([N+](=O)[O-])cc2)N1Nc1nc2ccccc2[nH]1 (stereo not given),IC50,HepG2,55800 nM
same,IC50,MCF7 [2],47600 nM
same,IC50,PC-3,64600 nM
CSc1cc(C)[nH]c(=O)c1CN1CCc2c(Cl)c3c(c(C)c2C1=O)O[C@@](C)([C@H]1CC[C@H](N(C)C)CC1)O3,GI50,KARPAS-422,5.7 nM
same,EC50,HeLa,0.849 nM
C=CC(=O)Nc1nn(Cc2ccccc2)c(C)c1C(=O)NCc1c(C)cc(C)[nH]c1=O,IC50,[1],5240 nM
C=CC(=O)Nc1nn(Cc2ccc(-c3ccccc3)cc2)c(C)c1C(=O)NCc1c(C)cc(C)[nH]c1=O,IC50,[1],109 nM
CCN(c1cc(-c2ccc(CN3CCOCC3)cc2)cc(C(=O)NCC2C(=O)NC(C)c3cccc(F)c32)c1C)C1CCOCC1 (stereo not given),IC50,[3],500 nM
Cc1cc(Cl)c(CNC(=O)c2cc(Cl)c3c(c2C)OC(C)(C2CCC(N4CC(OC5CC5)C4)CC2)O3)c(=O)[nH]1 (stereo not given),GI50,KARPAS-422,5 nM
same,EC50,HeLa,0.52 nM
CCN(c1cc(C(=O)NCc2c(OC)cc(C)[nH]c2=O)nc2c(-c3ccnc(N(C)C)c3)cnn12)C1CCOCC1,IC50,[4],≤ 100 nM
CCN(c1cc(Cl)cc(C(=O)NCc2c[nH]c(C)cc2=O)c1C)[C@H]1CC[C@H](N(C)C)CC1,IC50,[1],3 nM
Cc1cc(C)c(CNC(=O)c2cc(Br)c3c(c2C)O[C@@](C)([C@H]2CC[C@H](N(C)C)CC2)O3)c(=O)[nH]1,GI50,KARPAS-422,4 nM
CCCc1cc(C)[nH]c(=O)c1CNC(=O)c1cc(-c2ccc(N3CCOCC3)nc2)c2ccn(C(C)C)c2c1C,IC50,[1],0.01 nM
C=CCC1(S(=O)(=O)n2cc(C)c3c(C(=O)NCc4c(OC)cc(C)[nH]c4=O)cc(-c4ccc(N5CCN(C)CC5)nc4)cc32)CC1,IC50,[4],5 nM
same,IC50,[5],27000 nM
CCCc1cc(C)n(C)c(=O)c1CN(C)C(=O)c1cc(-c2ccc(N3CCN(C(C)C)CC3)nc2)cc2c1CNN2C(C)C,IC50,[1],13000 nM
Cc1cc(C)c(CNC(=O)c2cc(-c3ccc(CN4CCN(C)CC4)cc3)cc3c2OCCN3C2CCCCC2)c(=O)[nH]1,IC50,Pfeiffer,4210 nM
CCN(c1cc(-c2ccc(CN3CCOCC3)cc2)cc(C(=O)NCc2c3c(c(C)[nH]c2=O)CCCC3)c1C)C1CCOCC1,IC50,Pfeiffer,19500 nM
same,IC50,SU-DHL-6,20000 nM
[2H]C([2H])(NC(=O)c1c(C)n([C@H](C)C2CCC(OC)CC2)c2ccccc12)c1c(SC)cc(C)[nH]c1=O (stereo not given in full),IC50,[1],0.54 nM
same,IC50,SU-DHL-6,9.94 nM
COc1cc(C)[nH]c(=O)c1CNC(=O)c1c(C)n([C@H](C)C2CCN(CC(C)(F)F)CC2)c2ccccc12,IC50,[4],< 1 nM
same,IC50,[6],< 1 nM
Cc1cc2c(c(=O)[nH]1)CNC(=O)c1cc(Cl)cc3c1c(cn3C(C)C)/C=C/CC2,IC50,[1],40 nM
CC1=CCOc2c(Br)cc(C(=O)NCc3c(C)cc(C)[nH]c3=O)cc2C1,IC50,[1],> 1000 nM
O=C(c1cc(Cc2n[nH]c(=O)c3ccccc23)ccc1F)N1CCN(C(=O)C2CC2)CC1 [OLAPARIB],IC50,cells,36900 nM
same,IC50,MDA-MB-468,35600 nM
same,IC50,MCF7 [7],> 50000 nM
O=C1CCSC(c2ccc(Cl)cc2)N1Nc1nc2ccccc2[nH]1 (stereo not given),IC50,HepG2,53300 nM
same,IC50,MCF7 [2],74300 nM
same,IC50,PC-3,66900 nM
CCN(c1cc(Cl)cc2c1C/C=C/CCc1cc(C)[nH]c(=O)c1CNC2=O)C1CCC(F)(F)CC1,IC50,[1],16 nM
C=CCC1(S(=O)(=O)N2CC(C)c3c(C(=O)NCc4c(C)cc(C)[nH]c4=O)cc(-c4ccc(N5CCN(C)CC5)nc4)cc32)CC1 (stereo not given),IC50,[4],1530 nM
same,IC50,[5],1530 nM
CCN(c1cc(Br)cc(C(=O)NCc2c[nH]c(C)cc2=O)c1C)[C@H]1CC[C@H](N(C)C)CC1,IC50,[1],40 nM
CCN(c1cc(C(=O)NCc2c(OC)cc(C)[nH]c2=O)nc2c(-c3ccnc(NC)c3)cnn12)C1CCN(CC(F)(F)F)CC1,IC50,[4],≤ 100 nM
CCN(c1cc(-c2ccc(CN3CCOCC3)cc2)cc(C(=O)NCc2c3c(c(C)[nH]c2=O)CCCCCC3)c1C)C1CCOCC1,IC50,Pfeiffer,21000 nM
same,IC50,SU-DHL-6,> 30000 nM
CCC(C)n1cc(C)c2c(C(=O)NCC3=C(O)NN(CC)C3C)cc(-c3ccc(N4CCNCC4)nc3)cc21 (stereo not given),IC50,[4],1470 nM
same,IC50,[6],230 nM
